EP1572665B1, “1-N-PHENYLAMINO-1H-IMIDAZOLE DERIVATIVES AS AROMATASE INHIBITORS” (LABORATOIRE THERAMEX, priority 2002, dated 2004)
Counter-ions that a name gives are not always drawn.

Assays:
aromatase = biological target: T1, aromatase (Rattus norvegicus, UniProt P22443); experiment: Inhibition of aromatase in vivo (inhibition of the preovulatory surge of plasma estradiol levels); conditions: adult female Wistar rats, single oral administration of 10 micrograms/kg on diestrus, plasma estradiol 24 hours later, vs vehicle controls, n = number of independent studies; for inhibition at 0.01 mg/kg: rat, read-out: % inhibition at 10 µg/kg
T1 construct: In the rat, estradiol is physiologically synthesized to high circulating levels; from tissue; host or cells: whole animal: adult female Wistar rats (endogenous aromatase)
T1 sequence (P22443 1-508): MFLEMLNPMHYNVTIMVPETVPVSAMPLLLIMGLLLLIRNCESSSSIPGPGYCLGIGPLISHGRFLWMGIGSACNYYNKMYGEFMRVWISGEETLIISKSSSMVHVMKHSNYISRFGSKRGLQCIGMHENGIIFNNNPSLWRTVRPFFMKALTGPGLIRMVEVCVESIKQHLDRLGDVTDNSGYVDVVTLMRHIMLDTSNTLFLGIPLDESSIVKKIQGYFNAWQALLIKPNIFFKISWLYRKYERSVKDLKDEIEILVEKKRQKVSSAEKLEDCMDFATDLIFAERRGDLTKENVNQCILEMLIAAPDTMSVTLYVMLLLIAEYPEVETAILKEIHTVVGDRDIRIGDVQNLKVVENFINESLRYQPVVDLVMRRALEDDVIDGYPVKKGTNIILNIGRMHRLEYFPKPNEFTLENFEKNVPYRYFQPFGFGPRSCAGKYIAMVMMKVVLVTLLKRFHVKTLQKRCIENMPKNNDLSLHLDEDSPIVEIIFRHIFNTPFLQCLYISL
From the text: Aromatase is the steroidogenic enzyme responsible for the biosynthesis of estradiol, the main female sex hormone among estrogens. In the rat, estradiol is physiologically synthesized to high circulating levels in a particular period during the 4-day estrous cycle : it is the so-called preovulatory surge taking place in the afternoon of proestrus, just before ovulation which occurs during the night between proestrous and estrous phases. A sensitive physiological model for in vivo evaluation of aromatase inhibition was developped based on the inhibition of this preovulatory surge of estradiol levels.
Adult female Wistar rats are monitored for regular 4-day estrous cyclicity by daily vaginal smear examination; after 2 or 3 regular cycles, animals are treated by a single oral administration of the very low discriminative dose of 10 micrograms/kg in a 4 ml/kg volume around 04:00 PM on diestrus, i.e. on the day before proestrus. Precisely 24 hours later, aortic blood samples are drawn under gaseous anesthesia. Plasma estradiol levels are measured by radioimmunoassay with commercially available kits (Diagnostic Systems Laboratories, Webster, Texas, U. S. A.). Control and test groups usually consist of 7 to 10 rats, depending on the number of regularly cycling rats to distribute among study groups. Results are expressed in pg/ml and then in % of inhibition taking the estradiol levels of control animals receiving only the oral vehicle as the 100 % reference to allow comparisons between different independent studies, since the preovulatory surge level may vary in each control group from one study to another between about 25 to 40 pg/ml. Table B : Inhibition of aromatase in vivo

human aromatase = biological target: T2, human aromatase (Homo sapiens, UniProt P11511); experiment: Inhibition of human aromatase in vitro in JEG-3 cells (3H-water release from 1β-3H-androstenedione); type: cell-based; conditions: JEG-3 cell line; 1β-3H-androstenedione 10 nM; 2 hours incubation; mean ± sem
T2 construct: The JEG-3 cell line, derived from a human placental choriocarcinoma, is intrinsically very rich in human aromatase; endogenous in cells; host or cells: JEG-3 (human placental choriocarcinoma)
T2 sequence (P11511 1-503): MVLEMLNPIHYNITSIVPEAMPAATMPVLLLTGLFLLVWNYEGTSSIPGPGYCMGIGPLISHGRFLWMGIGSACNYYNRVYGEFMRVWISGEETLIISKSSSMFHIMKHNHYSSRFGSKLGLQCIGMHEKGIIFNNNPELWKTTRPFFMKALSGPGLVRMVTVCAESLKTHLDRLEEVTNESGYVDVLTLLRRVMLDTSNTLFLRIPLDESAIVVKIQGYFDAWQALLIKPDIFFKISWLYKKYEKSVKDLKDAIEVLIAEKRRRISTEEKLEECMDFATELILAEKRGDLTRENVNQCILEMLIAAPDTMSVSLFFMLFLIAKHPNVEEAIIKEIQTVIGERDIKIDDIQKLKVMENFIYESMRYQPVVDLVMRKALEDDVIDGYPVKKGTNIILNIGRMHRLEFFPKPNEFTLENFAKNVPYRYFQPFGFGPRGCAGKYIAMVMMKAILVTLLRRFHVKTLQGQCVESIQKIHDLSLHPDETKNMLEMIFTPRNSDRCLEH
Description: Stocks of JEG-3 cells are grown up to 80 % of confluence as monolayers in plastic flasks in minimum Eagle's medium with 1 g/l glucose and 10 % decomplemented fetal calf serum at pH 7.4 and 37° C, under a 5 % CO2 atmosphere. Then, 24 hours before aromatase activity measurement, JEG-3 cells are distributed for seeding in 96-well microplates (60,000 to 100,000 viable cells in 100 µl of culture medium per well) ; 24 hours later, microplates are rinsed and fresh medium containing the radioactive aromatase substrate (1β-^3H-androstenedione, 10 nM) is added together with test compounds dissolved with 1 % dimethylsulfoxide in a test concentration range between 10^-11 and 10^-4 M in a total volume of 150 µl.
Two hours after the beginning of the incubation, 100 µl of the supernatants are transferred to homologous new 96-well microplates. A solution of dextran-coated charcoal (1 %) is added in each well (100 µl/well) ; after standing for 10 minutes on ice, microplates are centrifuged (1500 g) for 10 more minutes at 4° C. All steroids, including the radioactive substrate and the newly biosynthesized estrogens, are trapped complexed by the charcoal ; only ^3H-water specifically formed during aromatisation of 1β-^3H-androstenedione, involving a specific oxidative step removing the 1β-^3H, remains in the supernatant at this stage. […]

inhibition at 0.01 mg/kg (aromatase) [%]	IC50 (human aromatase) [nM]	% inhibition at 10 µg/kg (aromatase) [%]	Compound
57 to 59			N#Cc1ccc(CN(c2ccc(C#N)cc2)n2ccnc2)cc1 [Example 11, 4-[N-(1H-imidazol-1-yl)-N-(4-cyanophenylmethyl)amino]benzonitrile, hydrochloride]
60			N#Cc1ccc(N(Cc2ccc(F)c(F)c2)n2ccnc2)cc1 [Example 17, 4-[N-(1H-imidazol-l-yl)-N-(3,4-difluorophenylmethyl)amino]benzonitrile]
	0.3 ± 0.04	35	N#Cc1ccc(N(Cc2ccc(Br)cc2)n2cnnc2)cc1 [YM 511, reference compound]

The next lines start with the compound.

Compound	inhibition at 0.01 mg/kg (aromatase) [%]	IC50 (human aromatase) [nM]	% inhibition at 10 µg/kg (aromatase) [%]
CC(C)(C#N)c1cc(Cn2cncn2)cc(C(C)(C)C#N)c1 [Anastrozole, anastrozole, reference compound]	18 to 33		
N#Cc1ccc(N(Cc2ccc(C(F)(F)F)cc2)n2ccnc2)cc1 [Example 6, 4-[N-(1H-imidazol-1-yl)-N-(4-trifluoromethylphenylmethyl)amino]-benzonitrile]	57		
N#Cc1ccc(N(Cc2ccc(Cl)cc2)n2ccnc2)cc1 [Example 7, 4-[N-(1H-imidazol-1-yl)-N-(4-chlorophenylmethyl)amino]benzonitrile, hydrochloride]	47		
N#Cc1ccc(N(Cc2ccc(F)cc2)n2ccnc2)cc1 [Example 14, 4-[N-(1H-imidazol-1-yl)-N-(4-fluorophenylmethyl)amino]benzonitrile, hydrochloride hemihydrate]	49 to 57		
